Laboratory results published in PMC7481290, “Halogenation as a tool to tune antimicrobial activity of peptoids” (Scientific Reports, 2020).
Values after ≈ are worked out from the molar mass of the structure shown. Non-standard residues stand in square brackets, D forms with d. Residues, ends and D or L forms follow the SMILES beside them. Gly(Nα-4-Cl-benzyl) = O=C(O)CNCc1ccc(Cl)cc1; N(4-Br-benzyl)Gly = O=C(O)CNCc1ccc(Br)cc1; N(4-F-Bzl)Gly = O=C(O)CNCc1ccc(F)cc1; NBzl(4-I)Gly = O=C(O)CNCc1ccc(I)cc1; Nphe = O=C(O)CNCc1ccccc1; Nlys = NCCCCNCC(=O)O

Key:
E. coli ATCC 25922 = format: cell-based, Escherichia coli; details: ATCC 25922, 18 h
Method: (§1) Bacterial growth inhibition was determined by using broth microdilution according to the Clinical Laboratory Standards Institute[43]. The antibacterial activity of peptoids was tested against S. aureus ATCC 25923, ATCC29213, and methicillin resistant S. aureus USA 300, methicillin resistant S. epidermidis ATCC 51625, a biofilm producing methicillin resistant S. epidermidis ET-024[44], P. aeruginosa Pa01 (H103), and E. coli ATCC 25922. Bacteria, grown on agar plates for 18 h at 37 °C, were diluted to ∼1 × 10^8 CFU/mL in Mueller‐Hinton Broth II (MHB II). Twofold serial dilutions of peptoids in MHB II were inoculated with bacteria to achieve a final concentration of 5 × 10^5 CFU/mL in polypropylene 96 U‐well microtiter plates (Corning 3,897; ThermoFisher Scientific, Roskilde), followed by incubation at 37 °C in ambient air for 18 h. The MIC values were determined as the lowest concentration showing no visible bacterial growth. Experiments were performed twice (in technical triplicates) on 2 different days.

[1] = system: P. aeruginosa PA01 (H103); format: cell-based, Pseudomonas aeruginosa; details: H103, 18 h
Method: as §1

[2] = system: Methicillin-resistant S. epidermidis ET-024; format: cell-based, Staphylococcus epidermidis; details: Methicillin-resistant ET-024, 18 h
Method: as §1

[3] = system: Methicillin-resistant S. epidermidis ATCC 51625; format: cell-based, Staphylococcus epidermidis; details: ATCC 51625, 18 h
Method: as §1

[4] = system: Methicillin-resistant S. aureus USA 300; format: cell-based, Staphylococcus aureus; details: USA 300, 18 h
Method: as §1

S. aureus ATCC 29213 = format: cell-based, Staphylococcus aureus; details: ATCC 29213, 18 h
Method: as §1

S. aureus ATCC 25923 = format: cell-based, Staphylococcus aureus; details: ATCC 25923, 18 h
Method: as §1

Structure (SMILES): NCCCCNCC(=O)N(CC(=O)N(CCCCN)CC(=O)N(CC(=O)N(CCCCN)CC(=O)N(CC(=O)N(CCCCN)CC(=O)N(CC(=O)N(CCCCN)CC(=O)N(CC(=O)N(CCCCN)CC(=O)N(CC(N)=O)Cc1ccc(F)cc1)Cc1ccccc1)Cc1ccc(F)cc1)Cc1ccccc1)Cc1ccc(F)cc1)Cc1ccccc1 [Compound 33] (H-[Nlys][Nphe][Nlys][N(4-F-Bzl)Gly][Nlys][Nphe][Nlys][N(4-F-Bzl)Gly][Nlys][Nphe][Nlys][N(4-F-Bzl)Gly]-NH2)
- Minimal inhibitory concentration EC^f (E. coli ATCC 25922): 256 µg/mL (≈ 149 µM)
- Minimal inhibitory concentration PA^g [1]: 256 µg/mL (≈ 149 µM)
- Minimal inhibitory concentration MRSE^d [2]: 16 µg/mL (≈ 9.29 µM)
- Minimal inhibitory concentration MRSE^e [3]: 4 µg/mL (≈ 2.32 µM)
- Minimal inhibitory concentration MRSA^c [4]: 128 µg/mL (≈ 74.3 µM)
- Minimal inhibitory concentration SA^b (S. aureus ATCC 29213): 256 µg/mL (≈ 149 µM)
- Minimal inhibitory concentration SA^a (S. aureus ATCC 25923): 256 µg/mL (≈ 149 µM)

Structure (SMILES): NCCCCNCC(=O)N(CC(=O)N(CCCCN)CC(=O)N(CC(=O)N(CCCCN)CC(=O)N(CC(=O)N(CCCCN)CC(=O)N(CC(N)=O)Cc1ccc(F)cc1)Cc1ccccc1)Cc1ccc(F)cc1)Cc1ccccc1 [Compound 15] (H-[Nlys][Nphe][Nlys][N(4-F-Bzl)Gly][Nlys][Nphe][Nlys][N(4-F-Bzl)Gly]-NH2)
- Minimal inhibitory concentration EC^f (E. coli ATCC 25922): 512 µg/mL (≈ 444 µM)
- Minimal inhibitory concentration PA^g [1]: 512 µg/mL (≈ 444 µM)
- Minimal inhibitory concentration MRSE^d [2]: 128 µg/mL (≈ 111 µM)
- Minimal inhibitory concentration MRSE^e [3]: 128 µg/mL (≈ 111 µM)
- Minimal inhibitory concentration MRSA^c [4]: > 512 µg/mL
- Minimal inhibitory concentration SA^b (S. aureus ATCC 29213): > 512 µg/mL
- Minimal inhibitory concentration SA^a (S. aureus ATCC 25923): > 512 µg/mL

Structure (SMILES): NCCCCNCC(=O)N(CC(=O)N(CCCCN)CC(=O)N(CC(=O)N(CCCCN)CC(=O)N(CC(N)=O)Cc1ccc(Cl)cc1)Cc1ccccc1)Cc1ccc(Cl)cc1 [Compound 7] (H-[Nlys][Gly(Nα-4-Cl-benzyl)][Nlys][Nphe][Nlys][Gly(Nα-4-Cl-benzyl)]-NH2)
- Minimal inhibitory concentration EC^f (E. coli ATCC 25922): 256 µg/mL (≈ 281 µM)
- Minimal inhibitory concentration PA^g [1]: 512 µg/mL (≈ 561 µM)
- Minimal inhibitory concentration MRSE^d [2]: 64 µg/mL (≈ 70.2 µM)
- Minimal inhibitory concentration MRSE^e [3]: 32 µg/mL (≈ 35.1 µM)
- Minimal inhibitory concentration MRSA^c [4]: 128 µg/mL (≈ 140 µM)
- Minimal inhibitory concentration SA^b (S. aureus ATCC 29213): 256 µg/mL (≈ 281 µM)
- Minimal inhibitory concentration SA^a (S. aureus ATCC 25923): 256 µg/mL (≈ 281 µM)

Structure (SMILES): NCCCCNCC(=O)N(CC(=O)N(CCCCN)CC(=O)N(CC(=O)N(CCCCN)CC(=O)N(CC(N)=O)Cc1ccc(I)cc1)Cc1ccccc1)Cc1ccc(I)cc1 [Compound 9] (H-[Nlys][NBzl(4-I)Gly][Nlys][Nphe][Nlys][NBzl(4-I)Gly]-NH2)
- Minimal inhibitory concentration EC^f (E. coli ATCC 25922): 256 µg/mL (≈ 234 µM)
- Minimal inhibitory concentration PA^g [1]: 256 µg/mL (≈ 234 µM)
- Minimal inhibitory concentration MRSE^d [2]: 16 µg/mL (≈ 14.6 µM)
- Minimal inhibitory concentration MRSE^e [3]: 4 µg/mL (≈ 3.65 µM)
- Minimal inhibitory concentration MRSA^c [4]: 16 µg/mL (≈ 14.6 µM)
- Minimal inhibitory concentration SA^b (S. aureus ATCC 29213): 16 µg/mL (≈ 14.6 µM)
- Minimal inhibitory concentration SA^a (S. aureus ATCC 25923): 64 µg/mL (≈ 58.5 µM)

Structure (SMILES): NCCCCNCC(=O)N(CC(=O)N(CCCCN)CC(=O)N(CC(=O)N(CCCCN)CC(=O)N(CC(=O)N(CCCCN)CC(=O)N(CC(N)=O)Cc1ccc(Cl)cc1)Cc1ccccc1)Cc1ccc(Cl)cc1)Cc1ccccc1 [Compound 16] (H-[Nlys][Nphe][Nlys][Gly(Nα-4-Cl-benzyl)][Nlys][Nphe][Nlys][Gly(Nα-4-Cl-benzyl)]-NH2)
- Minimal inhibitory concentration EC^f (E. coli ATCC 25922): 256 µg/mL (≈ 216 µM)
- Minimal inhibitory concentration PA^g [1]: 512 µg/mL (≈ 431 µM)
- Minimal inhibitory concentration MRSE^d [2]: 8 µg/mL (≈ 6.74 µM)
- Minimal inhibitory concentration MRSE^e [3]: 8 µg/mL (≈ 6.74 µM)
- Minimal inhibitory concentration MRSA^c [4]: 16 µg/mL (≈ 13.5 µM)
- Minimal inhibitory concentration SA^b (S. aureus ATCC 29213): 64 µg/mL (≈ 53.9 µM)
- Minimal inhibitory concentration SA^a (S. aureus ATCC 25923): 16 µg/mL (≈ 13.5 µM)

Structure (SMILES): NCCCCNCC(=O)N(CC(=O)N(CCCCN)CC(=O)N(CC(=O)N(CCCCN)CC(=O)N(CC(N)=O)Cc1ccc(Br)cc1)Cc1ccccc1)Cc1ccc(Br)cc1 [Compound 8] (H-[Nlys][N(4-Br-benzyl)Gly][Nlys][Nphe][Nlys][N(4-Br-benzyl)Gly]-NH2)
- Minimal inhibitory concentration EC^f (E. coli ATCC 25922): 256 µg/mL (≈ 256 µM)
- Minimal inhibitory concentration PA^g [1]: 256 µg/mL (≈ 256 µM)
- Minimal inhibitory concentration MRSE^d [2]: 32 µg/mL (≈ 32 µM)
- Minimal inhibitory concentration MRSE^e [3]: 16 µg/mL (≈ 16 µM)
- Minimal inhibitory concentration MRSA^c [4]: 64 µg/mL (≈ 63.9 µM)
- Minimal inhibitory concentration SA^b (S. aureus ATCC 29213): 64 µg/mL (≈ 63.9 µM)
- Minimal inhibitory concentration SA^a (S. aureus ATCC 25923): 128 µg/mL (≈ 128 µM)

Structure (SMILES): NCCCCNCC(=O)N(CC(=O)N(CCCCN)CC(=O)N(CC(=O)N(CCCCN)CC(=O)N(CC(=O)N(CCCCN)CC(=O)N(CC(=O)N(CCCCN)CC(=O)N(CC(=O)N(CCCCN)CC(=O)N(CC(N)=O)Cc1ccc(Br)cc1)Cc1ccc(Br)cc1)Cc1ccc(Br)cc1)Cc1ccc(Br)cc1)Cc1ccc(Br)cc1)Cc1ccc(Br)cc1 [Compound 31] (H-[Nlys][N(4-Br-benzyl)Gly][Nlys][N(4-Br-benzyl)Gly][Nlys][N(4-Br-benzyl)Gly][Nlys][N(4-Br-benzyl)Gly][Nlys][N(4-Br-benzyl)Gly][Nlys][N(4-Br-benzyl)Gly]-NH2)
- Minimal inhibitory concentration EC^f (E. coli ATCC 25922): 64 µg/mL (≈ 29.9 µM)
- Minimal inhibitory concentration PA^g [1]: 256 µg/mL (≈ 119 µM)
- Minimal inhibitory concentration MRSE^d [2]: 4 µg/mL (≈ 1.87 µM)
- Minimal inhibitory concentration MRSE^e [3]: 4 µg/mL (≈ 1.87 µM)
- Minimal inhibitory concentration MRSA^c [4]: 2 µg/mL (≈ 0.933 µM)
- Minimal inhibitory concentration SA^b (S. aureus ATCC 29213): 8 µg/mL (≈ 3.73 µM)
- Minimal inhibitory concentration SA^a (S. aureus ATCC 25923): 4 µg/mL (≈ 1.87 µM)

Structure (SMILES): NCCCCNCC(=O)N(CC(=O)N(CCCCN)CC(=O)N(CC(=O)N(CCCCN)CC(=O)N(CC(=O)N(CCCCN)CC(=O)N(CC(=O)N(CCCCN)CC(=O)N(CC(=O)N(CCCCN)CC(=O)N(CC(N)=O)Cc1ccc(Br)cc1)Cc1ccccc1)Cc1ccc(Br)cc1)Cc1ccccc1)Cc1ccc(Br)cc1)Cc1ccccc1 [Compound 35] (H-[Nlys][Nphe][Nlys][N(4-Br-benzyl)Gly][Nlys][Nphe][Nlys][N(4-Br-benzyl)Gly][Nlys][Nphe][Nlys][N(4-Br-benzyl)Gly]-NH2)
- Minimal inhibitory concentration EC^f (E. coli ATCC 25922): 256 µg/mL (≈ 134 µM)
- Minimal inhibitory concentration PA^g [1]: > 512 µg/mL
- Minimal inhibitory concentration MRSE^d [2]: 8 µg/mL (≈ 4.2 µM)
- Minimal inhibitory concentration MRSE^e [3]: 1 µg/mL (≈ 0.525 µM)
- Minimal inhibitory concentration MRSA^c [4]: 8 µg/mL (≈ 4.2 µM)
- Minimal inhibitory concentration SA^b (S. aureus ATCC 29213): 8 µg/mL (≈ 4.2 µM)
- Minimal inhibitory concentration SA^a (S. aureus ATCC 25923): 8 µg/mL (≈ 4.2 µM)

Structure (SMILES): NCCCCNCC(=O)N(CC(=O)N(CCCCN)CC(=O)N(CC(=O)N(CCCCN)CC(=O)N(CC(=O)N(CCCCN)CC(=O)N(CC(N)=O)Cc1ccc(Br)cc1)Cc1ccc(Br)cc1)Cc1ccc(Br)cc1)Cc1ccc(Br)cc1 [Compound 13] (H-[Nlys][N(4-Br-benzyl)Gly][Nlys][N(4-Br-benzyl)Gly][Nlys][N(4-Br-benzyl)Gly][Nlys][N(4-Br-benzyl)Gly]-NH2)
- Minimal inhibitory concentration EC^f (E. coli ATCC 25922): 64 µg/mL (≈ 44.6 µM)
- Minimal inhibitory concentration PA^g [1]: > 512 µg/mL
- Minimal inhibitory concentration MRSE^d [2]: 2 µg/mL (≈ 1.39 µM)
- Minimal inhibitory concentration MRSE^e [3]: 4 µg/mL (≈ 2.79 µM)
- Minimal inhibitory concentration MRSA^c [4]: 2 µg/mL (≈ 1.39 µM)
- Minimal inhibitory concentration SA^b (S. aureus ATCC 29213): 8 µg/mL (≈ 5.58 µM)
- Minimal inhibitory concentration SA^a (S. aureus ATCC 25923): 4 µg/mL (≈ 2.79 µM)

Structure (SMILES): NCCCCNCC(=O)N(CC(=O)N(CCCCN)CC(=O)N(CC(=O)N(CCCCN)CC(=O)N(CC(=O)N(CCCCN)CC(=O)N(CC(N)=O)Cc1ccc(Br)cc1)Cc1ccccc1)Cc1ccc(Br)cc1)Cc1ccccc1 [Compound 17] (H-[Nlys][Nphe][Nlys][N(4-Br-benzyl)Gly][Nlys][Nphe][Nlys][N(4-Br-benzyl)Gly]-NH2)
- Minimal inhibitory concentration EC^f (E. coli ATCC 25922): 256 µg/mL (≈ 201 µM)
- Minimal inhibitory concentration PA^g [1]: 512 µg/mL (≈ 401 µM)
- Minimal inhibitory concentration MRSE^d [2]: 4 µg/mL (≈ 3.13 µM)
- Minimal inhibitory concentration MRSE^e [3]: 4 µg/mL (≈ 3.13 µM)
- Minimal inhibitory concentration MRSA^c [4]: 32 µg/mL (≈ 25.1 µM)
- Minimal inhibitory concentration SA^b (S. aureus ATCC 29213): 32 µg/mL (≈ 25.1 µM)
- Minimal inhibitory concentration SA^a (S. aureus ATCC 25923): 16 µg/mL (≈ 12.5 µM)
